# In patent US20100184767A1, “SUBSTITUTED OXAZOLIDINONES AND USE THEREOF” (priority 2007, published 2010):
# Biological target: human factor Xa (FXa) (Homo sapiens, UniProt P00742)
# Test: Factor Xa inhibition, fluorogenic assay
# Assay type: biochemical
# Conditions: fluorogenic substrate Boc-Ile-Glu-Gly-Arg-AMC, human FXa 1.3 nmol/l, pH 7.4, 22° C.
# Procedure: The enzymatic activity of human factor Xa (FXa) is measured using the conversion of a fluorogenic substrate specific for FXa. FXa cleaves aminomethylcoumarin, whose fluorescence is measured, from the peptidic substrate. The determinations are carried out in microtitre plates.
# Substances to be tested, in various concentrations, are dissolved in dimethyl sulphoxide and incubated for 15 min at 22° C. with human FXa (1.3 nmol/l dissolved in 50 mmol/l of Tris buffer [C,C,C-tris(hydroxymethyl)aminomethane], 100 mmol/l NaCl, 0.1% BSA [bovine serum albumin], pH 7.4). The fluorogenic substrate (5 μmol/l of Boc-Ile-Glu-Gly-Arg-AMC from Bachem) is then added. After an incubation time of 30 min, the sample is excited at a wavelength of 360 nm, and the emission at 460 nm is measured. The measured emissions of the test batches with test substance are compared to the control batches without test substance (only dimethyl sulphoxide instead of test substance in dimethyl sulphoxide), and IC50 values are calculated from the concentration/activity relationships.
# Sequence of human factor Xa (FXa) (P00742 235-488 limits assumed): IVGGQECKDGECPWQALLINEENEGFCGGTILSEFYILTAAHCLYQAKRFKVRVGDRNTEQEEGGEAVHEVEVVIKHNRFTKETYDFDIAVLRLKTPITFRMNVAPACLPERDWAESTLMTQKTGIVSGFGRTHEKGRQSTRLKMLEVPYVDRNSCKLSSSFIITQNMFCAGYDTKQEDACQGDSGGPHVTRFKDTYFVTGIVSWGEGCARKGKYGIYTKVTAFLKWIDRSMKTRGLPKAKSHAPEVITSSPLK
# Sequence of human factor Xa (FXa) (P00742 41-179 partner limits assumed): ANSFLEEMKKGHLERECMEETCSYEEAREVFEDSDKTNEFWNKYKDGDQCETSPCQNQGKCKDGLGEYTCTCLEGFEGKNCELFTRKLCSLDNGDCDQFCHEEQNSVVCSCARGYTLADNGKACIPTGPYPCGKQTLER
row,IC50 [nM],Structure (SMILES)
1,0.9,"O=C(NC[C@H]1CN(c2ccc(N3CCOCC3=O)cc2F)C(=O)O1)c1ccc(Cl)s1 [Example 1, 5-Chloro-N-({(5S)-3-[2-fluoro-4-(3-oxomorpholin-4-yl)phenyl]-2-oxo-1,3-oxazolidin-5-yl}methyl)thiophene-2-carboxamide]"
2,2.2,"O=C(NC[C@H]1CN(c2ccc(N3CCCCC3=O)cc2F)C(=O)O1)c1ccc(Cl)s1 [Example 11, 5-Chloro-N-({(5S)-3-[2-fluoro-4-(2-oxopiperidin-1-yl)phenyl]-2-oxo-1,3-oxazolidin-5-yl}methyl)thiophene-2-carboxamide]"
3,1.8,"O=C(NC[C@H]1CN(c2ccc(N3CCOCC3=O)cc2Cl)C(=O)O1)c1ccc(Cl)s1 [Example 12, 5-Chloro-N-({(5S)-3-[2-chloro-4-(3-oxomorpholin-4-yl)phenyl]-2-oxo-1,3-oxazolidin-5-yl}methyl)thiophene-2-carboxamide]"
4,0.9,"O=C(NC[C@H]1CN(c2ccc(-n3cccc(CO)c3=O)cc2F)C(=O)O1)c1ccc(Cl)s1 [Example 22, 5-Chloro-N-{[(5S)-3-{2-fluoro-4-[3-(hydroxymethyl)-2-oxopyridin-1(2H)-yl]phenyl}-2-oxo-1,3-oxazolidin-5-yl]methyl}thiophene-2-carboxamide]"
